Drawing on ChEMBL document CHEMBL5523758, “Discovery of 2-Methyl-5-(1H-pyrazol-4-yl)pyridines and Related Heterocycles as Promising M4 mAChR Positive Allosteric Modulators for the Treatment of Neurocognitive Disorders” (J Med Chem, 2024), this text covers deltapEC50, pKb and log(activity) for 15 compounds.

Some results are limits rather than exact numbers.

Experiment [1] deals with T1, Muscarinic acetylcholine receptor M4 (Homo sapiens) (UniProt P08173).
T1 sequence (whole entry): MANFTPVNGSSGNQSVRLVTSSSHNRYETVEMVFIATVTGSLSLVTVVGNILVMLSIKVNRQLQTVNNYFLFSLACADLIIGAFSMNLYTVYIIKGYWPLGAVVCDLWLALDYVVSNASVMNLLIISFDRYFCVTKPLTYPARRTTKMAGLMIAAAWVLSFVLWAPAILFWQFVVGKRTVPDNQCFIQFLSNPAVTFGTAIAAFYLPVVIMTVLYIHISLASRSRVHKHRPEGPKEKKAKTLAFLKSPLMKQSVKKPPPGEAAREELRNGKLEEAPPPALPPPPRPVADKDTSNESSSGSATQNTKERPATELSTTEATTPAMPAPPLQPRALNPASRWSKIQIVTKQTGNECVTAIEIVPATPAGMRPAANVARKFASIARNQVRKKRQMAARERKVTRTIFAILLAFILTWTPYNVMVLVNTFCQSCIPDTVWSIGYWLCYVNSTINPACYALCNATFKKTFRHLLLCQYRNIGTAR
The note with it: Flp-In-CHO, dose 10.0 µM, time 8.0 min.

The target of experiment [2] is T1, Muscarinic acetylcholine receptor M4 (Homo sapiens). The settings on record: Flp-In-CHO, filed as positive allosteric modulator, time 8.0 min.
For experiment [3] the target is unchanged. The settings on record: Flp-In-CHO, filed as positive allosteric modulator, time 8.0 min. This is another data set of the same source.
Experiment [4] shares this target. The note with it: Flp-In-CHO, filed as positive allosteric modulator, time 8.0 min. The source holds these as a separate data set.
The target is the same in experiment [5]. The note with it: Flp-In-CHO.
Description: Positive allosteric modulation at human M4 mAChR stably expressed in Flp-In-CHO cells co-transfected with CAMYEL biosensor assessed as ACh-induced CAMYEL activation by measuring log of operational efficacy by BRET assay
Experiment [6] has the same target. The note with it: Flp-In-CHO, filed as positive allosteric modulator.
Description: Positive allosteric modulation at human M4 mAChR stably expressed in Flp-In-CHO cells co-transfected with CAMYEL biosensor assessed as ACh-induced CAMYEL activation by measuring log of functional co-operativity by BRET assay
The target is the same in experiment [7]. The settings on record: Flp-In-CHO, time 5.0 min.
The target is the same in experiment [8]. The settings on record: Flp-In-CHO, filed as positive allosteric modulator, time 5.0 min.
Where [9] appears, read: filed as positive allosteric modulator.

Take `Cc1ccc(-c2cnn(CCC#N)c2)c(-c2ccc3c(c2)C(=O)N(C)C3)n1`: in experiment [1], the deltapEC50 was above 0.4. The compound also registered a pKb in experiment [2] of 4.74. Also, the log(activity) in experiment [3] was 0.88; in experiment [4] it was 1.49; in experiment [5], -0.64; in experiment [6] it was 0.84.

Turning to `Cc1ccc(-c2cnn(CCCCC(=O)O)c2)c(-c2ccc3c(c2)C(=O)N(C)C3)n1`, the deltapEC50 in experiment [1] is above 0.4.

As for `Cc1ccc(-c2cnn(CC3CCCC3)c2)c(-c2ccc3c(c2)C(=O)N(CC#N)C3)n1`, the pKb in experiment [2] came to 5.26. The log(activity) in experiment [3] turned out to be 1.55; in experiment [4] it was 1.94; in experiment [5] (setting [9]) it was 0.48; in experiment [6] it was 1.

`Cc1ccc(-c2cnn(CCCN)c2)c(-c2ccc3c(c2)C(=O)N(C)C3)n1` came in with a negative-log Kb (pKb) in experiment [2] of 4.79. Moreover, the log(activity) in experiment [3] was 0.85; in experiment [4] it was 1.56; in experiment [5] it was -0.47; in experiment [6], 0.44.

In experiment [2], `Cc1ccc(-c2cnn(CCCCC#N)c2)c(-c2ccc3c(c2)C(=O)N(C)C3)n1` yielded a pKb of 4.55. Moreover, the log(activity) in experiment [3] stood at 1.16; in experiment [4], 1.93; in experiment [5] (setting [9]), 0.28; in experiment [6] it was 1.03.

As to `CN1Cc2ccc(-c3nc4ccccc4cc3-c3cnn(CC4CCCC4)c3)cc2C1=O`, in experiment [1], the deltapEC50 was above 0.4. In experiment [2], this compound returned a negative logarithm of the Kb (pKb) of 4.53. Besides, the log(activity) is 1.56 in experiment [3]; 2.01 in experiment [4]; 0.84 in experiment [5] (setting [9]); 1.99 in experiment [6]; -0.28 in experiment [7]; 1.92 in experiment [8].

For the compound `Cc1ccc(-c2cnn(CC3CCCC3)c2)c(-c2ccc3c(c2)C(=O)N(C)C3)n1`, in experiment [2], the negative-log Kb (pKb) turned out to be 5.86. Besides, the log(activity) in experiment [3] was found to be 1.58; in experiment [4], 1.74; in experiment [5] (setting [9]), 0.25; in experiment [6], 0.53; in experiment [7] (setting [9]), 0.02; in experiment [8], 1.89.

In experiment [1], `COC(=O)CCn1cc(-c2ccc(C)nc2-c2ccc3c(c2)C(=O)N(C)C3)cn1` displayed a deltapEC50 above 0.4. In experiment [2], this compound yielded a pKb of 4.57. Also, the log(activity) in experiment [3] was 0.73; in experiment [4], 1.46; in experiment [5], -0.28; in experiment [6], 1.08.

For `Cc1ccc(-c2cnn(CCCC(=O)O)c2)c(-c2ccc3c(c2)C(=O)N(C)C3)n1`, the deltapEC50 in experiment [1] was above 0.4.

For `COC(=O)CCCCn1cc(-c2ccc(C)nc2-c2ccc3c(c2)C(=O)N(C)C3)cn1`, in experiment [1], the deltapEC50 was above 0.4.

Consider `COC(=O)CCCn1cc(-c2ccc(C)nc2-c2ccc3c(c2)C(=O)N(C)C3)cn1`, for which the pKb in experiment [2] was found to be 4.73. The log(activity) turned out to be 1.05 in experiment [3], 1.94 in experiment [4], 0.18 in experiment [5] (setting [9]) and 1.04 in experiment [6].

`Cc1ccc(-c2cnn(CC3CCCC3)c2)c(-c2ccc3c(c2)C(=O)NC3)n1` came in with a negative-log Kb (pKb) in experiment [2] of 5.65. Besides, the log(activity) turned out to be 1.72 in experiment [3], 2.15 in experiment [4], 0.5 in experiment [5] (setting [9]) and 1.07 in experiment [6].

In the case of `Cc1cnc(-c2ccc3c(c2)C(=O)N(C)C3)c(-c2cnn(CC3CCCC3)c2)c1`, the pKb in experiment [2] amounted to 4.73. The log(activity) turned out to be 2.17 in experiment [3]; 2.53 in experiment [4]; 1.17 in experiment [5] (setting [9]); 2.12 in experiment [6]; 0.08 in experiment [7] (setting [9]); 2.3 in experiment [8].

Regarding `Cc1ccc(-c2cnn(CCC(N)=O)c2)c(-c2ccc3c(c2)C(=O)N(C)C3)n1`, the deltapEC50 in experiment [1] was above 0.4.

Compound `Cc1ncc(-c2cnn(CC3CCCC3)c2)c(-c2ccc3c(c2)C(=O)N(C)C3)n1` yielded a negative logarithm of the Kb (pKb) in experiment [2] of 4.71. In addition, the log(activity) in experiment [3] stood at 1.3; in experiment [4], 1.92; in experiment [5] (setting [9]), 0.1; in experiment [6], 0.74.
